Results reported in patent EP0560267B1, “Isosteric antiherpes peptide derivatives” (BOEHRINGER INGELHEIM (CANADA) LTD., priority 1992, dated 1993).
Read-outs that look alike come from different tables or passages of the source.

Assays:
HSV-2 = experiment: Inhibition of Herpes Simplex Virus (HSV-2) replication in cell culture; type: cell-based
Experimental: Inhibition of Herpes Simplex Virus (HSV-2) Replication in Cell Culture
BHK-21/C13 cells (ATCC CCL 10) are incubated for two days in 150 cm^2 T-flasks (1.5 x 10^6 cells/flask) with alpha-MEM medium (Gibco Canada Inc., Burlington, Ontario, Canada) supplemented with 8% (v/v) fetal bovine serum (FBS, Gibco Canada Inc.). The cells are trypsinized and then transferred to fresh media in a 24 well plate to give 2.5 x 10^5 cells in 750 µL of media per well. The cells are incubated at 37° for a period of 6 h to allow them to adhere to the plate. Thereafter, the cells are washed once with 500 µL of alpha-MEM supplemented with 0.5% (v/v) FBS and then incubated with 750 µL of the same media (low serum) for 3 days. After this period of serum starvation, the low serum medium is removed and the cells are incubated in 500 µL of BBMT for 2 to 3 hours. {BBMT medium is described by P. Brazeau et al., Proc. Natl. Acad. Sci. USA, 79, 7909 (1982).} Thereafter, the cells are infected with HSV-2 (multiplicity of infection = 0.02 PFU/cell) in 100 µL of BBMT medium. (Note: The HSV-2 used was strain HG-52, see Y. Langelier and G. Buttin, J. Gen. Virol., 57, 21 (1981); the virus was stored at -80°.) Following 1 h of virus adsorption at 37°, the media is removed and the cells are washed with BBMT (3 X 250 µL). The cells in each well are incubated with or without (control) appropriate concentrations of the test agent dissolved in 200 µL of BBMT medium. After 29 h of incubation at 37°, the infected cells are harvested by first freezing the plate at -80°, followed by thawing. The cells in each well are scraped off the surface of the well with the help of the melting ice fragments. After complete thawing, the cell suspensions are collected and each well is rinsed with 150 µL of BBMT medium. The viral sample (suspension plus washing) is sonicated gently for 4 min at 4°. Cell debris are removed by centrifugation (1000 times gravity for 10 minutes at 4°). The supernatant is collected and stored at -80° until determination of viral titer.
Viral titration was performed by a modification of the colorimetric assay method of M. Langlois et al., Journal of Biological Standardization, 14, 201 (1986).
More specifically, in a similar manner as described above, BHK-21/C13 cells are trypsinized and transferred to fresh media in a 96 well microtiter plate to give 20,000 cells in 100 µL of media per well. The cells in the prepared plate are incubated at 37° for 2 h. During that time, the viral sample is thawed and sonicated gently for 15 seconds, and log dilutions of the sample are prepared (1/5 sequential: 50 µL of the sample plus 200 µL of BBMT medium, sequential dilutions being done with a multichannel pipette.
On completion of the above 2 hour incubation of the BHK-21/C13 cells, the media is replaced with alpha-MEM medium supplemented with 3% (v/v) FBS. The cells are now ready to be infected with the various sample dilutions of virus. Aliquots (50 µL) of the various dilutions are transferred into the appropriate wells of the plate. The resulting infected cells are incubated for 2 days at 37°. Then 50 µL of a 0.15% (v/v) solution of neutral red dye in Hank's Balanced Salt Solution (pH 7.3, Gibco Canada Inc.) is added to each well. The prepared plate is incubated for 45 min at 37°. Medium from each well is then aspirated and the cells are washed once with 200 µL of Hank's Balanced Salt Solution. […]

[1] = target: T1, HSV-1 ribonucleotide reductase (Human herpesvirus 1, UniProt P08543); experiment: Inhibition of Herpes Simplex Virus (HSV-1) ribonucleotide reductase; type: biochemical
T1 construct: HSV-1 ribonucleotide reductase (partially purified) was obtained from quiescent BHK-21/C13 cells infected with strain F HSV-1 virus; made in house; host or cells: quiescent BHK-21/C13 cells infected with HSV-1 strain F (virus-encoded enzyme, partially purified)
T1 sequence (P08543 whole entry): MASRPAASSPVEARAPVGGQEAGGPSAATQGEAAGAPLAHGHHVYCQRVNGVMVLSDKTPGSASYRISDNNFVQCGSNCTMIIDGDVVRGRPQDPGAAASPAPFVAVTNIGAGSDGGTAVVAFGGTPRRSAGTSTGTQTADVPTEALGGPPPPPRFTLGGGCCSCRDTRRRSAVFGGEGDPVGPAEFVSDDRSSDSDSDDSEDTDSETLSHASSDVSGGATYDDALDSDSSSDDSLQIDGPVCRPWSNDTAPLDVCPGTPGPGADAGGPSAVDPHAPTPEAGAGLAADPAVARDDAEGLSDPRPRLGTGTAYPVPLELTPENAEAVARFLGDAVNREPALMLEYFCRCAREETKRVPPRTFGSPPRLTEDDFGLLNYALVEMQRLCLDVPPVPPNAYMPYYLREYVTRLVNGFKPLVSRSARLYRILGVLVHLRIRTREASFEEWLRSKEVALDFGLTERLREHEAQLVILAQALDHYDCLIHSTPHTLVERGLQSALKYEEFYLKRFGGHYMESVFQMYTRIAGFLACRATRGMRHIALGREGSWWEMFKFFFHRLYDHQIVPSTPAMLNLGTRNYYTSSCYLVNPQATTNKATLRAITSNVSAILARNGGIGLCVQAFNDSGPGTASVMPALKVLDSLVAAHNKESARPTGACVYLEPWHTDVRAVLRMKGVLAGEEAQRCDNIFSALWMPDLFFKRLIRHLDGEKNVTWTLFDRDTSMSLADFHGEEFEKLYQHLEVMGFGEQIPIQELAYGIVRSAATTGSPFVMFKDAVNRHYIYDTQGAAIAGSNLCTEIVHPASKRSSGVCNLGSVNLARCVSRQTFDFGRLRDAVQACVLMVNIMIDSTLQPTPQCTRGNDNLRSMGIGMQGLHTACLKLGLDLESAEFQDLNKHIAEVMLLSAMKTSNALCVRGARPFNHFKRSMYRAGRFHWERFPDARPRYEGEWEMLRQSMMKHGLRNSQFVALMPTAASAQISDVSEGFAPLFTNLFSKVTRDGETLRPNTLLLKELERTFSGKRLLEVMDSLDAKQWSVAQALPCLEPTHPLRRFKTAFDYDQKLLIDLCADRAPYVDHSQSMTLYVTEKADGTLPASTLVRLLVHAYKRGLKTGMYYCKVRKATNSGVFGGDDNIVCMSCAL
Text: Inhibition of Herpes Simplex Virus (HSV-1) Ribonucleotide Reductase
• a) Preparation of Enzyme HSV-1 ribonucleotide reductase (partially purified) was obtained from quiescent BHK-21/C13 cells infected with strain F HSV-1 virus at 10 plaque forming units/cell as described by E.A. Cohen et al., J. Gen. Virol., 66, 733 (1985). • b) Assay and Results for Exemplified Peptides By following the procedure described by P. Gaudreau et al., J. Biol, Chem., 262, 12413 (1987), the assay results listed in the following Table I were obtained. The assay result for each exemplified compound of formula 1 is expressed as the concentration of the compound producing 50% of the maximal inhibition (IC50) of enzyme activity. The number of units of the enzyme preparation used in each assay was constant, based on the specific activity of the enzyme preparation. The results are relative to the activity obtained in control experiments without the test compound and represent the mean of four assays that varied less than 10% with each other.

[2] = Human alphaherpesvirus 2, BHK21 (C13), 29 h, Table II, BHK-21/C13 cells, HSV-2 strain HG-52, 0.02 PFU/cell, 29 h incubation, read-out: EC50
[3] = Table I, partially purified enzyme from BHK-21/C13 cells infected with strain F HSV-1, mean of four assays
[4] = Human alphaherpesvirus 2, Table IV, cell culture assay of example 11, read-out: EC50
[5] = Human alphaherpesvirus 2, Table V, cell culture assay of example 11
[6] = Table IV, cell culture assay of example 11, read-out: EC50

Compound	EC50 (HSV-2; [4])	IC50 ([1]; Table IV, assay of example 10)	also measured
CCC(CC)NC(=O)NC(C(=O)CC(CC(=O)C(C)(C)C)C(=O)NC(C(=O)NCC(C)(C)C)C1(C(=O)O)CCCC1)C(C)(C)C [Et2CHNHC(O)-Tbg-CH2-(R)-CH(CH2C(O)-CMe3)C(O)-Asp(cyPn)-NHCH2CMe3]			EC50 (HSV-2; [2]): 56 µM; IC50 [1, 3]: 0.23 µM
CCCCC(CCCC)NC(=O)NC(C(=O)CC(CC(=O)C(C)(C)C)C(=O)NC(C(=O)NCC(C)(C)C)C1(C(=O)O)CCCC1)C(C)(C)C [Bu2CHNHC(O) / NHCH2CMe3, Bu2CHNHC(O)-Tbg-CH2-(R)-CH(CH2C(O)CMe3)C(O)-Asp(cyPn)-NHCH2CMe3]	65 µM	0.53 µM	
CCCCC(CC)NC(=O)NC(C(=O)CC(CC(=O)C(C)(C)C)C(=O)NC(C(=O)NCC(C)(C)C)C1(C(=O)O)CCCC1)C(C)(C)C [(R,S)-EtBuCH-NHC(O) / NHCH2CMe3, (R,S)-EtBuCH-NHC(O)-Tbg-CH2-(R)-CH(CH2C(O)CMe3)C(O)-Asp(cyPn)-NHCH2CMe3]	35 µM	0.26 µM	
C=CCC(C(=O)O)C(NC(=O)C(CC(=O)C(NC(=O)NC(CCC)CCC)C(C)(C)C)CC(=O)C(C)(C)C)C(=O)NCC(C)(C)C [Pr2CHNHC(O)-Tbg-CH2-(R)-CH(CH2-C(O)CMe3)C(O)-Asp{(R)-allyl}-NHCH2CMe3]			EC50 (HSV-2; [5]): 62 µM; IC50 ([1]; Table V, assay of example 10): 0.3 µM
CCCC(CCC)NC(=O)NC(C(=O)CC(CC(=O)C(C)(C)C)C(=O)NC(C(=O)NCC(CC)(CC)CC)C1(C(=O)O)CCCC1)C(C)(C)C [Pr2CHNHC(O) / NHCH2CEt3, Pr2CHNHC(O)-Tbg-CH2-(R)-CH(CH2C(O)CMe3)C(O)-Asp(cyPn)-NHCH2CEt3]	19 µM	0.52 µM	
C=CCC(CC=C)NC(=O)NC(C(=O)CC(CC(=O)C(C)(C)C)C(=O)NC(C(=O)NCC(C)(C)C)C1(C(=O)O)CCCC1)C(C)(C)C [(CH2=CHCH2)2-CHNHC(O) / NHCH2CMe3, (CH2=CHCH2)2-CHNHC(O)-Tbg-CH2-(R)-CH(CH2C(O)CMe3)C(O)-Asp(cyPn)-NHCH2CMe3]	100 µM	0.37 µM	
CCCC(CCC)NC(=O)NC(C(=O)CC(CC(=O)C(C)(C)C)C(=O)NC(C(=O)NC(C)(C)C(C)(C)C)C1(C(=O)O)CCCC1)C(C)(C)C [Pr2CHNHC(O) / NHCMe2CMe3, Pr2CHNHC(O)-Tbg-CH2-(R)-CH(CH2C(O)CMe3)C(O)-Asp(cyPn)-NHCMe2CMe3]	38 µM	0.51 µM	
CCCC(CCC)NC(=O)NC(C(=O)CC(CC(=O)C1(C)CCCC1)C(=O)NC(C(=O)NCC(C)(C)C)C1(C(=O)O)CCCC1)C(C)(C)C [Pr2CHNHC(O)-Tbg-CH2-(R)-CH{CH2-C(O)-(1-methylcyclopentyL)}C(O)-Asp(cyPn)-NHCH2CMe3]			EC50 (HSV-2; Human alphaherpesvirus 2): 35 µM; IC50 ([1]; Table V, assay of example 10): 0.24 µM
CCCC(CCC)NC(=O)NC(C(=O)CC(CC(=O)C(C)(C)C)C(=O)NC(C(=O)NC(C)C(C)(C)C)C1(C(=O)O)CCCC1)C(C)(C)C [Pr2CHNHC(O) / NH-(R)-CH(Me)CMe3, Pr2CHNHC(O)-Tbg-CH2-(R)-CH(CH2C(O)CMe3)C(O)-Asp(cyPn)-NH-(R)-CH(Me)CMe3]	14 µM	0.28 µM	
CCCC(CCC)NC(=O)NC(C(=O)CC(CC(=O)C(C)(C)C)C(=O)NC(C(=O)NNC(C)(C)C)C1(C(=O)O)CCCC1)C(C)(C)C [Pr2CHNHC(O) / NHNHCMe3, Pr2CHNHC(O)-Tbg-CH2-(R)-CH(CH2C(O)CMe3)C(O)-Asp(cyPn)-NHNHCMe3]	84 µM	0.22 µM	
EtPr2CHNHC(O)-Tbg-CH2-(R)-CH(CH2C(O)CMe3)C(O)-Asp(cyPn)-NHCH2CHEt2 [EtPr2CHNHC(O) / NHCH2CHEt2]		0.41 µM	EC50 (HSV-2; [6]): 42 µM
CCCC(CCC)NC(=O)NC(C(=O)CC(CC(=O)C1CCCCC1)C(=O)NC(C(=O)NCC(C)(C)C)C1(C(=O)O)CCCC1)C(C)(C)C [Pr2CHNHC(O)-Tbg-CH2-(R)-CH{CH2-C(O)-(cyclohexyl)}C(O)-Asp(cyPn)-NHCH2CMe3]			EC50 (HSV-2; Human alphaherpesvirus 2): 61 µM; IC50 ([1]; Table V, assay of example 10): 0.37 µM
CCCC(CCC)NC(=O)NC(C(=O)CC(CC(=O)C(C)(C)C)C(=O)NC(C(=O)NC(CO)C(C)(C)C)C1(C(=O)O)CCCC1)C(C)(C)C [Pr2CHNHC(O) / NH-(S)-CH(CMe3)CH2OH, Pr2CHNHC(O)-Tbg-CH2-(R)-CH(CH2C(O)CMe3)C(O)-Asp(cyPn)-NH-(S)-CH(CMe3)CH2OH]	48 µM	0.23 µM	
CCCC(CCC)NC(=O)NC(C(=O)CC(CC(=O)C(C)(C)C)C(=O)NC(C(=O)NC(C)C(C)(C)C)C1(C(=O)O)CCCC1)C(C)C [Pr2CHNHC(O)-Val-CH2-(R)-CH(CH2-C(O)CMe3)C(O)-Asp(cyPn)-NH-(R)-CH(Me)CMe3]			EC50 (HSV-2; [5]): 37 µM; IC50 ([1]; Table V, assay of example 10): 0.22 µM
CCCC(CCC)NC(=O)NC(C(=O)CC(CC(=O)C(C)(C)C)C(=O)NC(C(=O)NC(CC)C(C)(C)C)C1(C(=O)O)CCCC1)C(C)(C)C [Pr2CHNHC(O) / NH-(R)-CH(Et)CMe3, Pr2CHNHC(O)-Tbg-CH2-(R)-CH(CH2C(O)CMe3)C(O)-Asp(cyPn)-NH-(R)-CH(Et)CMe3]	10 µM	0.34 µM	
CCCC(CCC)NC(=O)NC(C(=O)CC(CC(=O)C(C)(C)C)C(=O)NC(C(=O)NN(C)C(C)(C)C)C1(C(=O)O)CCCC1)C(C)(C)C [Pr2CHNHC(O) / NH-N(Me)CMe3, Pr2CHNHC(O)-Tbg-CH2-(R)-CH(CH2C(O)CMe3)C(O)-Asp(cyPn)-NH-N(Me)CMe3]	110 µM	0.27 µM	
CCCC(C)(CCC)NC(=O)NC(C(=O)CC(CC(=O)C(C)(C)C)C(=O)NC(C(=O)NCC(C)(C)CC)C1(C(=O)O)CCCC1)C(C)(C)C [MePr2CHNHC(O) / NHCH2CMe2Et, MePr2CHNHC(O)-Tbg-CH2-(R)-CH(CH2C(O)CMe3)C(O)-Asp(cyPn)-NHCH2CMe2Et]		0.36 µM	EC50 (HSV-2; Human alphaherpesvirus 2, Table IV, cell culture assay of example 11): 29 µM
CCC(CC)NC(=O)NC(C(=O)CC(CC(=O)N1CCCC1)C(=O)NC(C(=O)NC(CO)CC(C)(C)C)C1(C(=O)O)CCCC1)C(C)(C)C [Et2CHNHC(O)-Tbg-CH2-(S)-CH{CH2C(O)-(pyrrolidino)}C(O)-Asp(cyPn)-γMeLeucinol]			EC50 (HSV-2; [2]): 200 µM; IC50 [1, 3]: 0.17 µM
Me(CH2=CH-CH2)2CNHC(O)-Tbg-CH2-(R)-CH(CH2C(O)CMe3)C(O)-Asp(cyPn)-NHCH2CMe3 [Me(CH2=CHCH2)2-CNHC(O) / NHCH2CMe3]		0.27 µM	EC50 (HSV-2; [6]): 30 µM
